Reference: ChEMBL document CHEMBL1124151, “21-[18F]fluoro-16 alpha-ethyl-19-norprogesterone: synthesis and target tissue selective uptake of a progestin receptor based radiotracer for positron emission tomography” (J Med Chem, 1988)

How the values were obtained:
Rattus norvegicus [1] = test: Distribution in bone of estrogen-primed immature rats after 3 hour iv administration (120 micro Ci); settings: in vivo
Rattus norvegicus [2] = test: Distribution in uterus of estrogen-primed immature rats after 1 hour iv administration (120 microCi); settings: in vivo
Rattus norvegicus [3] = test: Distribution in kidney of estrogen-primed immature rats after 1 hour iv administration (120 microCi); settings: in vivo
Rattus norvegicus [4] = test: Distribution in uterus/blood of in estrogen-primed immature rats after 1 hour iv administration (120 microCi); settings: other tissue
Rattus norvegicus [5] = test: Distribution in liver of estrogen-primed immature rats after 1 hour iv administration (13 microCi); settings: in vivo
Rattus norvegicus [6] = test: Distribution in kidney of estrogen-primed immature rats after 3 hour iv administration (120 micro Ci); settings: in vivo
Rattus norvegicus [7] = test: Distribution in lungs of estrogen-primed immature rats after 3 hour iv administration (120 micro Ci); settings: in vivo
Rattus norvegicus [8] = test: Distribution in uterus/muscle of estrogen-primed immature rats after 3 hour iv administration (120 micro Ci); settings: in vivo
Rattus norvegicus [9] = test: Distribution in uterus/muscle of estrogen-primed immature blocked rats after 1 hour iv administration (~/= 17 microg); settings: in vivo
Rattus norvegicus [10] = test: Distribution in blood of estrogen-primed immature rats after 3 hour iv administration (120 micro Ci); settings: in vivo
Rattus norvegicus [11] = test: Distribution in uterus of in estrogen-primed immature rats after 1 hour iv administration (13 microCi); settings: in vivo
Rattus norvegicus [12] = test: Distribution in muscle of iestrogen-primed immature rats after 3 hour iv administration (120 micro Ci); settings: in vivo
Rattus norvegicus [13] = test: Distribution in lungs of estrogen-primed immature blocked rats after 1 hour iv administration (~/= 17 microg); settings: in vivo
Rattus norvegicus [14] = test: Distribution in fat of estrogen-primed immature rats after 3 hour iv administration (120 micro Ci); settings: in vivo
Rattus norvegicus [15] = test: Distribution in muscle of iestrogen-primed immature blocked rats after 1 hour iv administration (~/= 17 microg); settings: in vivo
Rattus norvegicus [16] = test: Distribution in uterus/blood of in estrogen-primed immature rats after 1 hour iv administration (13 microCi); settings: other tissue
Rattus norvegicus [17] = test: Distribution in fat of iestrogen-primed immature blocked rats after 1 hour iv administration (~/= 17 microg); settings: in vivo
Rattus norvegicus [18] = test: Distribution in liver of estrogen-primed immature rats after 3 hour iv administration (120 micro Ci); settings: in vivo
Rattus norvegicus [19] = test: Distribution in blood of estrogen-primed immature blocked rats after 1 hour iv administration (~/= 17 microg); settings: in vivo
Rattus norvegicus [20] = test: Distribution in bone of iestrogen-primed immature rats after 1 hour iv administration (120 microCi); settings: in vivo
Rattus norvegicus [21] = test: Distribution in lungs of estrogen-primed immature rats after 1 hour iv administration (13 microCi); settings: in vivo
Rattus norvegicus [22] = test: Distribution in brain of estrogen-primed immature rats after 1 hour iv administration (120 microCi); settings: in vivo
Rattus norvegicus [23] = test: Distribution in lungs of estrogen-primed immature rats after 1 hour iv administration (120 microCi); settings: in vivo
Rattus norvegicus [24] = test: Distribution in blood of estrogen-primed immature rats after 1 hour iv administration (120 microCi); settings: in vivo
Rattus norvegicus [25] = test: Distribution in muscle of iestrogen-primed immature rats after 1 hour iv administration (120 microCi); settings: in vivo
Rattus norvegicus [26] = test: Distribution in fat of iestrogen-primed immature rats after 1 hour iv administration (13 microCi); settings: in vivo
Rattus norvegicus [27] = test: Distribution in uterus/blood of estrogen-primed immature blocked rats after 1 hour iv administration (~/= 17 microg); settings: other tissue
Rattus norvegicus [28] = test: Distribution in muscle of iestrogen-primed immature rats after 1 hour iv administration (13 microCi); settings: in vivo
Rattus norvegicus [29] = test: Distribution in bone of iestrogen-primed immature blocked rats after 1 hour iv administration (~/= 17 microg); settings: in vivo
Rattus norvegicus [30] = test: Distribution in blood of estrogen-primed immature rats after 1 hour iv administration (13 microCi); settings: in vivo
Rattus norvegicus [31] = test: Distribution in kidney of estrogen-primed immature rats after 1 hour iv administration (13 microCi); settings: in vivo
Rattus norvegicus [32] = test: Distribution in uterus/blood of estrogen-primed immature rats after 3 hour iv administration (120 micro Ci); settings: in vivo
Rattus norvegicus [33] = test: Distribution in uterus of estrogen-primed immature blocked rats after 1 hour iv administration (~/= 17 microg); settings: in vivo
Rattus norvegicus [34] = test: Distribution in kidney of estrogen-primed immature blocked rats after 1 hour iv administration (~/= 17 microg); settings: in vivo
Rattus norvegicus [35] = test: Distribution in liver of estrogen-primed immature blocked rats after 1 hour iv administration (~/= 17 microg); settings: in vivo
Rattus norvegicus [36] = test: Distribution in ovaries of estrogen-primed immature blocked rats after 1 hour iv administration (~/= 17 microg); settings: in vivo
Rattus norvegicus [37] = test: Distribution in fat of iestrogen-primed immature rats after 1 hour iv administration; settings: in vivo
Rattus norvegicus [38] = test: Distribution in ovaries of estrogen-primed immature rats after 3 hour iv administration (120 micro Ci); settings: in vivo
Rattus norvegicus [39] = test: Distribution in ovaries of estrogen-primed immature rats after 1 hour iv administration (13 microCi); settings: in vivo
Rattus norvegicus [40] = test: Distribution in liver of estrogen-primed immature rats after 1 hour iv administration (120 microCi); settings: in vivo
Rattus norvegicus [41] = test: Distribution in bone of iestrogen-primed immature rats after 1 hour iv administration (13 microCi); settings: in vivo
Rattus norvegicus [42] = test: Distribution in ovaries of estrogen-primed immature rats after 1 hour iv administration (120 microCi); settings: in vivo
Rattus norvegicus [43] = test: Distribution in uterus/muscle of in estrogen-primed immature rats after 1 hour iv administration (120 microCi); settings: in vivo
Rattus norvegicus [44] = test: Distribution in brain of estrogen-primed immature rats after 3 hour iv administration (120 micro Ci); settings: in vivo
Rattus norvegicus [45] = test: Distribution in brain of estrogen-primed immature blocked rats after 1 hour iv administration (~/= 17 microg); settings: in vivo
Rattus norvegicus [46] = test: Distribution in brain of estrogen-primed immature rats after 1 hour iv administration (13 microCi); settings: in vivo
Rattus norvegicus [47] = test: Distribution in uterus of in estrogen-primed immature rats after 3 hour iv administration; settings: in vivo
Rattus norvegicus [48] = test: Distribution in uterus/muscle of in estrogen-primed immature rats after 1 hour iv administration (13 microCi); settings: in vivo

Compound: CC[C@@H]1C[C@H]2[C@@H]3CCC4=CC(=O)CC[C@@H]4[C@H]3CC[C@]2(C)[C@H]1C(=O)C[18F]
- Distribution (Rattus norvegicus [1]): 5.55%
- Distribution (Rattus norvegicus [2]): 6.43%
- Distribution (Rattus norvegicus [3]): 1.05%
- Distribution (Rattus norvegicus [4]): 26.26%
- Distribution (Rattus norvegicus [5]): 2.59%
- Distribution (Rattus norvegicus [6]): 0.33%
- Distribution (Rattus norvegicus [7]): 0.12%
- Distribution (Rattus norvegicus [8]): 41.16%
- Distribution (Rattus norvegicus [9]): 1.59%
- Distribution (Rattus norvegicus [10]): 0.07%
- Distribution (Rattus norvegicus [11]): 4.03%
- Distribution (Rattus norvegicus [12]): 0.12%
- Distribution (Rattus norvegicus [13]): 0.3%
- Distribution (Rattus norvegicus [14]): 2.78%
- Distribution (Rattus norvegicus [15]): 0.25%
- Distribution (Rattus norvegicus [16]): 21.18%
- Distribution (Rattus norvegicus [17]): 2.9%
- Distribution (Rattus norvegicus [18]): 1.01%
- Distribution (Rattus norvegicus [19]): 0.15%
- Distribution (Rattus norvegicus [20]): 3.18%
- Distribution (Rattus norvegicus [21]): 0.57%
- Distribution (Rattus norvegicus [22]): 0.63%
- Distribution (Rattus norvegicus [23]): 0.47%
- Distribution (Rattus norvegicus [24]): 0.25%
- Distribution (Rattus norvegicus [25]): 0.42%
- Distribution (Rattus norvegicus [26]): 4.13%
- uterus/blood ratio (Rattus norvegicus [27]): 2.53
- Distribution (Rattus norvegicus [28]): 0.39%
- Distribution (Rattus norvegicus [29]): 3.09%
- Distribution (Rattus norvegicus [30]): 0.19%
- Distribution (Rattus norvegicus [31]): 0.86%
- uterus/blood ratio (Rattus norvegicus [32]): 71.2
- Distribution (Rattus norvegicus [33]): 0.38%
- Distribution (Rattus norvegicus [34]): 0.58%
- Distribution (Rattus norvegicus [35]): 2.09%
- Distribution (Rattus norvegicus [36]): 1%
- Distribution (Rattus norvegicus [37]): 3.56%
- Distribution (Rattus norvegicus [38]): 1.72%
- Distribution (Rattus norvegicus [39]): 2.37%
- Distribution (Rattus norvegicus [40]): 3.34%
- Distribution (Rattus norvegicus [41]): 3.06%
- Distribution (Rattus norvegicus [42]): 2.86%
- Distribution (Rattus norvegicus [43]): 15.98%
- Distribution (Rattus norvegicus [44]): 0.14%
- Distribution (Rattus norvegicus [45]): 0.32%
- Distribution (Rattus norvegicus [46]): 0.48%
- Distribution (Rattus norvegicus [47]): 4.63%
- Distribution (Rattus norvegicus [48]): 11.06%
